The test system of assay [1] is Plasmodium falciparum (strain 3D7). Nature of the assay: In vitro drug susceptibility assay, protozoon D (3[H]-hypoxanthine method). In kind it is cell-based. How it is done:
(§1) Plasmodium falciparum strain K1 and strain 3D7 parasites were cultured according to Trager W and Jensen JB (Science 1976, 193: 673-675). In vitro drug susceptibility assays with the test compounds were carried out according to Korsinczky M et al. (Antimicrobial agents and chemotherapy 2000, 44(8): 2100-2108) and Fivelman QL et al. (Antimicrobial agents and chemotherapy 2004, 48(11): 4097-4102) using a ^3[H]-hypoxanthine radioisotope method. ED50 values were calculated with Msxlfit (IDBS).
(§2) The following protozoa were assessed: • A) Trypanosoma cruzi (Tulahuan-LACZ amstigotes in PEM, Lorente SO et al., Antimicrobial agents and chemotherapy 2004, 48(8): 2937-2950; Buckner et al., Infection and Immunity 1999, 67(1): 403-409; Buckner et al., Antimicrobial Agents and Chemotherapy 1996, 40(11): 2592-2597) • B) Trypanosoma brucei rhodesiense (strain STIB900, Lorente SO et al., Antimicrobial agents and chemotherapy 2004, 48(8): 2937-2950; Habtemariam S, BMC Pharmacology 2003, 3:6) • C) Plasmodium falciparum (strain K1, Korsinczky M et al., Antimicrobial agents and chemotherapy 2000, 44(8): 2100-2108; Thaitong S and Beale GH, Trans. R. Soc. Trop. Med. Hyg. 1981, 75: 271-273; Trager W and Jensen JB, Science 1976, 193: 673-675) • D) Plasmodium falciparum (strain 3D7, Mu et al., PLoS Biology 2005, 3(10): e335)

In assay [2] the test system is Trypanosoma brucei rhodesiense (strain STIB900). Nature of the assay: In vitro drug activity assay, protozoon B (bloodstream form trypomastigotes, Alamar Blue). Particulars: incubated for 72 hours. The class given is cell-based. How it is done:
Trypanosoma brucei rhodesiense STIB900 bloodstream form trypomastigotes were maintained in HMI-18 medium (Hirumi H, Hirumi K, J Parasitol. 1989, 75(6):985-989) with 15% heat-inactivated fetal calf serum at 37°C, 5% CO2, humidified atmosphere. Trypomastigotes were washed and resuspended in fresh medium at a concentration of 2 x 10^5 mL. Test compounds were given to the trypomastigotes and plates were incubated for 72 hours at 37°C, 5% CO2, humidified atmosphere. At 72 hours the plates were assessed microscopically before Alamar Blue was added (Raz et al., Acta Trop. 1997, 68: 139-147). Plates were read after 5 to 6 hours at EX/EM 530/585 nm with a filter cutoff at 550 nm. ED50 values were calculated with Msxlfit (IDBS).
as §2

Assay [3] deals with Cryptocoocus gattii (ATCC 32608). Nature of the assay: Anti-fungal susceptibility test (microdilution), fungus G. In kind it is cell-based. How it is done: (§3) The antifungal activities of the test compounds (compounds of the invention and known prior art compounds) were measured according to standard microdilution methods (Cryptococcus/Aspergillus: Ghannoum et al., Journal of Clinical Microbiology 1992, 30 (11): 2881-2886; Candida: Reference method for broth dilution susceptibility testing of yeast: proposed standard, NCCLS document M27-P, National Committee for Clinical Laboratory Standards 1992, Villanova, Pa).
(§4) A serial dilution series starting from 64 µg/mL test compound per well down to 0.125 µg/mL test compound per well was applied for each test compound on each fungus. The MIC of each compound was defined as the concentration which produces no visible growth after 48 hours (Candida) and 72 hours (Cryptococcus, Aspergillus) of culture at 35° C.
(§5) The following fungi were assessed: • A) Candida albicans (ATCC 10231) • B) Candida albicans (ATCC 90028) • C) Candida albicans (strain TS3, Shrikantha et al., Journal of Bacteriology 2000, 182(6):1580-1591) • D) Candida parapsilosis (ATCC 22019) • E) Cryptocoocus neoformans (ATCC 90112) • F) Cryptocoocus neoformans (strain H99; Ganendren et al., Antimicrobial Agents and Chemotherapy, 2004, 48(5):1561-1569) • G) Cryptocoocus gattii (ATCC 32608) • H) Aspergillus fumigatus (ATCC 204305) • I) Aspergillus fumigatus (strain 322-384)
In general terms: Broth dilution looks for growth in wells or tubes with falling amounts of substance.

In assay [4] the test system is Plasmodium falciparum (strain K1). Description: In vitro drug susceptibility assay, protozoon C (3[H]-hypoxanthine method). In kind it is cell-based. The protocol:
as §1, §2

Assay [5] has as its system Cryptocoocus neoformans (strain H99). Nature of the assay: Anti-fungal susceptibility test (microdilution), fungus F. In kind it is cell-based. The protocol:
as §3, §4, §5

Assay [6] concerns Cryptocoocus neoformans (ATCC 90112). Nature of the assay: Anti-fungal susceptibility test (microdilution), fungus E. In kind it is cell-based. How it is done:
as §3, §4, §5

Assay [7] concerns Trypanosoma cruzi (Tulahuan-LACZ amstigotes in PEM). Description: In vitro drug activity assay, protozoon A (amastigotes in murine peritoneal macrophages, CPRG readout). Particulars: infected macrophages exposed for 3 days. The class given is cell-based. How it is done: Murine (CD1) peritoneal macrophages were harvested 24 hours after starch induction and dispensed into 96-well plates at a concentration of 4 x 10^5 mL. After 24 hours, the cells were infected with Trypanosoma cruzi Tulahuan LAC-Z amastigotes (grown and cultured according to Buckner et al., Infection and Immunity 1999, 67(1): 403-409). 24 hours later, the infected cells were exposed to the test compounds (compounds of the invention as well as known prior art compounds) for 3 days and 50 µL of 500 µM CPRG-1% Nonidet P-40 was added to each well. The plates were read after 2 to 5 hours at 570 nm (Buckner et al., Antimicrobial Agents and Chemotherapy 1996, 40(11): 2592-2597). ED50 values were calculated with Msxlfit (IDBS).
as §2

Assay [8] relates to Aspergillus fumigatus (ATCC 204305). Nature of the assay: Anti-fungal susceptibility test (microdilution), fungus H. In kind it is cell-based. As to conditions: Aspergillus fumigatus, ATCC204305, no visible growth after 72 hours at 35° C, read-out: MIC. The protocol: as §3, §4, §5
In assay [9] the test system is Candida albicans (ATCC 10231). Description: Anti-fungal susceptibility test (microdilution), fungus A. The class given is cell-based. Particulars: Candida albicans, ATCC10231, no visible growth after 48 hours at 35° C, read-out: MIC. How it is done: as §3, §4, §5
Assay [10] concerns Candida parapsilosis (ATCC 22019). Nature of the assay: Anti-fungal susceptibility test (microdilution), fungus D. In kind it is cell-based. Particulars: ATCC22019, no visible growth after 48 hours at 35° C, read-out: MIC. How it is done: as §3, §4, §5
Assay [11] relates to Candida albicans (strain TS3). Nature of the assay: Anti-fungal susceptibility test (microdilution), fungus C. In kind it is cell-based. As to conditions: Candida albicans, no visible growth after 48 hours at 35° C, read-out: MIC. How it is done:
as §3, §4, §5

Assay [12] has as its system Candida albicans (ATCC 90028). Nature of the assay: Anti-fungal susceptibility test (microdilution), fungus B. As to conditions: Candida albicans, ATCC90028, no visible growth after 48 hours at 35° C, read-out: MIC. In kind it is cell-based. How it is done: as §3, §4, §5
Assay [13] relates to Aspergillus fumigatus (strain 322-384). Description: Anti-fungal susceptibility test (microdilution), fungus I. The class given is cell-based. As to conditions: Aspergillus fumigatus, no visible growth after 72 hours at 35° C, read-out: MIC. The protocol:
as §3, §4, §5

Another assay deals with Leishmaniasis. Particulars: clinical phase III trials, parenteral; cited from earlier work.
Setting [14] is: fungus G, no visible growth after 72 hours at 35° C, read-out: MIC.
Setting [15] is: fungus F, no visible growth after 72 hours at 35° C, read-out: MIC.
Where [16] appears, read: fungus E, no visible growth after 72 hours at 35° C, read-out: MIC.

Molecules are shown by their SMILES. ≈ marks a conversion by molar mass, not a printed value. Like-named read-outs stand apart in the source and are kept apart here.

Usually MIC stands for the smallest concentration in the dilution series that meets the test's criterion for growth inhibition. On to `CCCCCCCCCCCCCCCCOP(=O)([O-])OC1CC[N+](C)(Cc2ccccc2)CC1` (stereo not shown) [Compound 1, Phosphoric acid 1-benzyl-1-methyl-piperidin-4-yl ester hexadecyl ester], for which the “ED50 (µg/mL)” value in assay [1] was 9,97 µg/mL; in assay [2], 18,80 µg/mL; in assay [4] it was 6,93 µg/mL; in [7] it was 1,71 µg/mL. Further, the minimum inhibitory concentration (MIC) in assay [3] (setting [14]) was found to be 1 µg/mL (≈ 1.96 µM); in [5] (setting [15]), 2 µg/mL (≈ 3.92 µM); in assay [6] (setting [16]), 1.5 µg/mL (≈ 2.94 µM); in assay [8] it was 2 µg/mL (≈ 3.92 µM); in [9], 2 µg/mL (≈ 3.92 µM); in assay [10], 3 µg/mL (≈ 5.89 µM). For the same compound, the values for the MIC in [11], in assay [12] and in assay [13] were 1.5 µg/mL (≈ 2.94 µM), 1 µg/mL (≈ 1.96 µM) and 2 µg/mL (≈ 3.92 µM), respectively.

Take `CCCCCCCCCCCCCCCCOP(=O)([O-])OCC[N+]12CCC(CC1)CC2` [Compound 3, Phosphoric acid 2-(1-aza-bicyclo[2.2.2]oct-1-yl)-ethyl ester hexadecyl ester]: the “ED50 (µg/mL)” value in assay [1] was 2,25 µg/mL; in assay [2] it was 25,03 µg/mL; in [4] it was 8,03 µg/mL; in assay [7], 0,33 µg/mL. The MIC in assay [3] (72 h) stood at 0.75 µg/mL (≈ 1.63 µM); in assay [5] (72 h), 1 µg/mL (≈ 2.18 µM); in assay [6] (72 h), 1.5 µg/mL (≈ 3.26 µM); in assay [8], 3 µg/mL (≈ 6.53 µM); in assay [9], 1 µg/mL (≈ 2.18 µM); in [10], 2 µg/mL (≈ 4.35 µM). The minimum inhibitory concentration (MIC) in assay [11] came to 2 µg/mL (≈ 4.35 µM); in [12], 1 µg/mL (≈ 2.18 µM); in assay [13] it was 2 µg/mL (≈ 4.35 µM).

Regarding `CCCCCCCCCCCCCCCCCCOP(=O)([O-])OC1CC[N+](CC)(CC)CC1` [Compound 5, Phosphoric acid 1,1-diethyl-piperidin-4-yl ester octadecyl ester], the “ED50 (µg/mL)” value in [1] is given as 16,31 µg/mL; in [2], 14,20 µg/mL; in assay [4], 21,26 µg/mL; in assay [7], 1,43 µg/mL. Further, the minimum inhibitory concentration (MIC) in [3] (setting [14]) came to 0.75 µg/mL (≈ 1.53 µM); in [5] (setting [15]) it was 2 µg/mL (≈ 4.08 µM); in assay [6] (setting [16]), 1.5 µg/mL (≈ 3.06 µM); in assay [8], 6 µg/mL (≈ 12.3 µM); in assay [9] it was 2 µg/mL (≈ 4.08 µM); in assay [10], 3 µg/mL (≈ 6.13 µM). Besides, the minimal inhibitory concentration (MIC) stood at 2 µg/mL (≈ 4.08 µM) in [11], 2 µg/mL (≈ 4.08 µM) in assay [12] and 8 µg/mL (≈ 16.3 µM) in assay [13].

With `NC[C@@H]1O[C@H](O[C@H]2[C@@H](O)[C@H](O[C@@H]3[C@@H](O)[C@H](N)C[C@H](N)[C@H]3O[C@H]3O[C@H](CO)[C@@H](O)[C@H](O)[C@H]3N)O[C@@H]2CO)[C@H](N)[C@@H](O)[C@@H]1O` [paromomycin], the “efficient in % of the cases” value in the assay with Leishmaniasis is reported as 95%.

(Values after patent publication EP1800684A1, “Novel alkyl phospholipid derivatives and uses thereof” (Zentaris GmbH, priority 2005, dated 2007).)
